# Legend:
# [1] = Reduction potential of organic acceptor compound by cyclic voltammetry; type: physicochemical; conditions: for Reduction potential [V] of organic acceptor: organic acceptor added when producing the phthalocyanine crystal, reference electrode (Ag+/Ag); for Reduction potential [V] / Redox potential: organic acceptor; for Reduction Potential: to reference electrode (Ag+/Ag), cyclic voltammetry in dichloromethane
# Procedure: The reduction potential of the organic acceptor compound was determined by a cyclic voltammetry. The measurement conditions are shown below.
# Work electrode: glassy carbon
# Counter electrode: platinum
# Reference electrode: silver/silver nitrate (0.1 mol/1AgNO3-acetonitrile solution)
# Electrolyte: tetra-n-butylammonium perchlorate (0.1 mol)
# Specimen: acceptor compound (0.001 mol)
# Solvent: dichloromethane (1 L)
# [2] = Solubility of organic acceptor compound in tetrahydrofuran (solvent of coating solution); type: physicochemical; conditions: for Solubility / Solubility/THF [% by weight]: THF; for Solubility/THF [% by weight]: organic acceptor; for Solubility/THF [% by weight] of organic acceptor: in THF
# Excerpt: Specific examples of the organic acceptor compound are shown below.
Reduction potential [V] of organic acceptor ([1]; Table 3) [V],Reduction potential [V] of organic acceptor ([1]; Table 5) [V],Reduction potential [V] ([1]; Table 1),Reduction potential [V] ([1]; Table 2),Reduction Potential [1] [V],Solubility [2] [% by weight],Solubility/THF [% by weight] ([2]; Table 1),Solubility/THF [% by weight] ([2]; Table 2),Solubility/THF [% by weight] of organic acceptor ([2]; Table 3) [% by weight],Solubility/THF [% by weight] of organic acceptor ([2]; Table 5) [% by weight],Solubility/THF [% by weight] ([2]; Table 4),Solubility/THF [% by weight] ([2]; Table 6),SMILES,Redox potential ([1]; Table 4),Redox potential ([1]; Table 6)
−0.85,−0.85,−0.85,−0.85,−0.85,3,3,3,3,3,–,–,CC(C)(C)C1=CC(=C2C=C(C(C)(C)C)C(=O)C(C(C)(C)C)=C2)C=C(C(C)(C)C)C1=O [AC-2],–,–
−1.28,−1.28,−1.28,−1.28,−1.28,3,3,3,3,3,–,–,O=C1NC(=O)c2ccccc21 [AC-4],–,–
−0.85,−0.85,−0.85,−0.85,−0.85,1,1,1,1,1,–,–,O=C1c2ccc3c4c(ccc(c24)C(=O)N1C1CCCCC1)C(=O)N(C1CCCCC1)C3=O [AC-3],–,–
–,–,–,–,−1.31,11,–,–,–,–,11,11,"Cc1ccc(C(=O)c2ccc(C)cc2)cc1 [AC-8, reference compound]",−1.31,−1.31
−0.95,−0.95,−0.95,−0.95,−0.95,3,3,3,3,3,3,3,O=C1C(Oc2ccccc2)=C(Oc2ccccc2)C(=O)c2ccccc21 [AC-1],−0.95,−0.95

SMILES,Reduction potential [V] of organic acceptor ([1]; Table 3) [V],Reduction potential [V] of organic acceptor ([1]; Table 5) [V],Reduction potential [V] ([1]; Table 1),Reduction potential [V] ([1]; Table 2),Reduction Potential [1] [V],Solubility [2] [% by weight],Solubility/THF [% by weight] ([2]; Table 1),Solubility/THF [% by weight] ([2]; Table 2),Solubility/THF [% by weight] of organic acceptor ([2]; Table 3) [% by weight],Solubility/THF [% by weight] of organic acceptor ([2]; Table 5) [% by weight],Solubility/THF [% by weight] ([2]; Table 4),Solubility/THF [% by weight] ([2]; Table 6),Redox potential ([1]; Table 4),Redox potential ([1]; Table 6)
"O=C(c1ccccc1)c1ccccc1 [AC-6, reference compound]",–,–,–,–,−1.32,–,–,–,–,–,–,–,−1.32,−1.32
"O=C1OC(=O)c2ccccc21 [AC-5, reference compound]",–,–,–,–,−1.53,5,–,–,–,–,5,5,−1.53,−1.53
